Assay results reported in ChEMBL document CHEMBL1147226, “dd-diketopiperazines: antibiotics active against Vibrio anguillarum isolated from marine bacteria associated with cultures of Pecten maximus” (2003).
Values after ≈ are worked out from the molar mass of the structure shown.

Each compound was assayed on Vibrio anguillarum (assay: Antimicrobial activity against Vibrio anguillarum after 24 to 48 hrs).
Assay type: functional

SMILES	MIC
CC[C@@H](C)[C@H]1NC(=O)[C@H]2CCCN2C1=O	0.05 µg/mL (≈ 0.238 µM)
CC(C)C[C@H]1NC(=O)[C@@H](Cc2cnc[nH]2)NC1=O	0.07 µg/mL (≈ 0.28 µM)
CC(C)C[C@H]1NC(=O)[C@H]2CCCN2C1=O	0.04 µg/mL (≈ 0.19 µM)
CC[C@@H](C)[C@H]1NC(=O)[C@@H]2CCCN2C1=O	0.11 µg/mL (≈ 0.523 µM)
CC(C)[C@H]1NC(=O)[C@@H]2CCCN2C1=O	0.14 µg/mL (≈ 0.713 µM)
CC(C)C[C@H]1NC(=O)[C@@H](C(C)C)NC1=O	0.05 µg/mL (≈ 0.236 µM)
CC(C)[C@@H]1NC(=O)[C@H]2CCCN2C1=O	0.11 µg/mL (≈ 0.561 µM)
CC(C)[C@H]1NC(=O)[C@H]2CCCN2C1=O	0.05 µg/mL (≈ 0.255 µM)
CC[C@@H](C)[C@@H]1NC(=O)[C@H]2CCCN2C1=O	0.12 µg/mL (≈ 0.571 µM)

Continued, values first:

MIC	SMILES
0.03 µg/mL (≈ 0.123 µM)	O=C1N[C@H](Cc2ccccc2)C(=O)N2CCC[C@H]12
0.13 µg/mL (≈ 0.532 µM)	O=C1N[C@H](Cc2ccccc2)C(=O)N2CCC[C@@H]12
0.12 µg/mL (≈ 0.571 µM)	CC(C)C[C@H]1NC(=O)[C@@H]2CCCN2C1=O
0.13 µg/mL (≈ 0.618 µM)	CC(C)C[C@@H]1NC(=O)[C@H]2CCCN2C1=O
0.07 µg/mL (≈ 0.269 µM)	O=C1N[C@H](Cc2ccccc2)C(=O)N2C[C@H](O)C[C@H]12
0.1 µg/mL (≈ 0.409 µM)	O=C1N[C@@H](Cc2ccccc2)C(=O)N2CCC[C@H]12
